{"source": "patent US20100197782A1", "about": "“THERAPEUTIC AGENT FOR VIRUS-ASSOCIATED MALIGNANCY” (priority 2006, published 2010)", "key": {"[1]": {"test_system": "HTLV-I-infected T-lymph cell lines (MT-2, MT-4, HUT-102, ED-40515 (−))", "experiment": "Measurement of proliferation potency of HTLV-I-infected T-lymph cell lines (WST-8 cell survival rate)", "type": "cell-based", "conditions": "for effect on the growth of HTLV-I-infected T-lymph cell lines: 10, 5, 2.5 μM, FIG. 3; for effect on the growth of HTLV-I-infected T-lymph cell lines / growth of HTLV-I-infected T-lymph cell lines (cell survival rate): WST-8; for growth of HTLV-I-infected T-lymph cell lines (cell survival rate): 10, 5, 2.5, 1.25, 0.625 μM, FIG. 1", "method": "(§1) After adding “WST-8” (manufactured by Wako Pure Chemical Industries, Ltd.) in an amount of 5 μL/well as a coloring substrate, cells were cultured for four hours at 37° C.\n(§2) Cell survival rate (%)=[1−(A−B)/A]×100 [Formula 1]\n(§3) A: Absorbance without agent treatment\n(§4) A: Absorbance with agent treatment"}, "[2]": {"test_system": "EBV-infected B cell lines (Raji, Daudi, B95-8/BJAB, B95-8/Ramos, LCL-Ka, LCL-Ku)", "experiment": "Measurement of proliferation potency of EBV-infected B cell lines (WST-8 cell survival rate)", "type": "cell-based", "conditions": "24 hours; for growth of EBV-infected BL cell lines (cell survival rate): 10, 5, 2.5, 1.25, 0.625 μM, WST-8, FIG. 2", "method": "as §1, §2, §3, §4"}, "[3]": {"test_system": "PBMC (leukemia cells) of adult T-cell-leukemia (ATL) patients", "experiment": "Measurement of proliferation potency of peripheral blood mononuclear cells of ATL patients (WST-8)", "type": "cell-based, human", "conditions": "24 hours; for growth of leukemia cells in ATL patients (PBMC survival rate): five ATL patients, fucoxanthin 0.625-10 μM, fucoxanthinol 0.625-2.5 μM, FIG. 4"}, "PBMC of a healthy person": {"test_system": "PBMC of a healthy person", "experiment": "Measurement of proliferation potency of peripheral blood mononuclear cells of a healthy person (WST-8)", "conditions": "for action on normal cells: normal cells versus HTLV-1-infected cells and ATL cells", "method": "First, the peripheral blood mononuclear cells (PBMC) were separated by the Ficoll centrifugal specific gravity method. The cells were diluted with an RPMI 1640 culture medium containing 10% fetal bovine serum to 2×10^6 cells/mL and spread over a 96-well plate in an amount of 1×10^5 cells/well.\nNext, 50 μL/well of fucoxanthin and fucoxanthinol were added to make final concentrations of 10, 5, 2.5, 1.25, and 0.625 μM (fucoxanthin) or 2.5, 1.25 and 0.625 μM (fucoxanthinol), followed by incubation at 37° C. for 24 hours. After adding WST-8 in an amount of 5 μL/well, the cells were cultured for four hours at 37° C. After culturing, absorbance at a wavelength of 450 nm was measured by a microplate reader to determine the survival rate of the cells using the above formula."}, "[4]": {"test_system": "HTLV-I-infected cell lines (MT-2, MT-4, HUT-102, ED-40515 (−))", "experiment": "Measurement of cell-cycle of HTLV-I-infected cell lines (propidium iodide, flow cytometry)", "type": "cell-based", "conditions": "5 μM, 24 hours; FIG. 5", "method": "1×10^6 cells of HTLV-I-infected cell lines (MT-2, MT-4, HUT-102, ED-40515 (−)) were scattered over a cell culture plate, and 5 μM of fucoxanthin was added, followed by incubation at 37° C. for 24 hours. After 24 hours, the cells were collected and dyed with propidium iodide to measure the DNA content using a flow sight meter. The cell cycle of each cell was judged by calculating the distribution of the cell group of each cell cycle from the result of the DNA content."}, "[5]": {"test_system": "HTLV-I-infected cell lines (MT-2, MT-4, HUT-102, ED-40515 (−))", "experiment": "Measurement of apoptosis of HTLV-I-infected cell lines (annexin V, flow cytometry)", "type": "cell-based", "method": "After 24 hours, the cells were collected and dyed with annexin V to measure the rate (%) of apoptosis-positive cells using a flow sight meter."}, "[6]": {"conditions": "HTLV-1-infected cells and ATL cells"}}, "data": [{"smiles": "CC1=C(/C=C/C(C)=C/C=C/C(C)=C/C=C/C=C(C)/C=C/C=C(C)/C=C/C2=C(C)C(=O)[C@@H](O)CC2(C)C)C(C)(C)C[C@H](O)C1=O", "note": "[astaxanthin, reference compound]", "values": [{"measurement": "effect on the growth of HTLV-I-infected T-lymph cell lines", "setting": "[1]; 24 hours", "result": "only a slight effect"}]}, {"smiles": "CC(=O)O[C@H]1CC(C)(C)C(=C=C/C(C)=C/C=C/C(C)=C/C=C/C=C(C)/C=C/C=C(\\C)C(=O)C[C@@]23O[C@]2(C)C[C@@H](O)CC3(C)C)[C@](C)(O)C1", "note": "[fucoxanthin]", "values": [{"measurement": "growth of HTLV-I-infected T-lymph cell lines (cell survival rate)", "setting": "[1]; 24 hours", "result": "concentration-dependently suppressed the growth"}, {"measurement": "growth of EBV-infected BL cell lines (cell survival rate)", "setting": "[2]", "result": "concentration-dependently suppressed the growth"}, {"measurement": "growth of leukemia cells in ATL patients (PBMC survival rate)", "setting": "[3]", "result": "concentration-dependently suppressed the growth"}, {"measurement": "action on normal cells", "setting": "PBMC of a healthy person", "result": "substantially do not act on normal cells"}, {"measurement": "effect on the cell cycle of HTLV-I-infected cell lines", "setting": "[4]", "result": "suspends the cell cycle of all HTLV-I-infected cell lines at the G1 phase"}, {"measurement": "concentration causing apoptosis compared with β-carotene or astaxanthin", "setting": "[5]; [6]", "result": "significantly lower than the corresponding concentration of β-carotene or astaxanthin"}, {"measurement": "apoptosis of HTLV-I-infected cell lines (annexin V positive cells)", "setting": "[5]; MT-2, MT-4, HUT-102, ED-40515 (−), 24 hours, FIG. 6", "result": "induces apoptosis in all HTLV-I infected cell lines"}, {"measurement": "concentration dependence of apoptosis of MT-2", "setting": "[5]; MT-2, 10, 5, 2.5 μM, 24 hours, FIG. 7", "result": "concentration dependent"}]}, {"smiles": "C\\C(C=C=C1C(C)(C)C[C@H](O)C[C@@]1(C)O)=C/C=C/C(C)=C/C=C/C=C(C)/C=C/C=C(\\C)C(=O)C[C@@]12O[C@]1(C)C[C@@H](O)CC2(C)C", "note": "[fucoxanthinol]", "values": [{"measurement": "growth of HTLV-I-infected T-lymph cell lines (cell survival rate)", "setting": "[1]; 24 hours", "result": "concentration-dependently suppressed the growth"}, {"measurement": "survival rate of the cells", "setting": "[1]; HTLV-1-infected cells and ATL cells, at a concentration of one micromole or less", "result": "almost zero"}, {"measurement": "capability to inhibit growth compared with fucoxanthin", "setting": "[1]; HTLV-I-infected T-lymph cell lines, 24 hours", "result": "significantly higher than that of fucoxanthin"}, {"measurement": "growth of EBV-infected BL cell lines (cell survival rate)", "setting": "[2]", "result": "concentration-dependently suppressed the growth"}, {"measurement": "capability to inhibit growth compared with fucoxanthin", "setting": "[2]; EBV-infected BL cell lines", "result": "significantly higher than that of fucoxanthin"}, {"measurement": "effect on growth potency compared with fucoxanthin", "setting": "[3]; PBMC of ATL patients", "result": "higher than that of fucoxanthin"}, {"measurement": "growth of leukemia cells in ATL patients (PBMC survival rate)", "setting": "[3]", "result": "concentration-dependently suppressed the growth"}, {"measurement": "toxicity against the PBMC of the healthy person", "setting": "PBMC of a healthy person; fucoxanthin 0.625-10 μM, fucoxanthinol 0.625-2.5 μM, 24 hours, FIG. 4", "result": "no toxicity"}, {"measurement": "action on normal cells", "setting": "PBMC of a healthy person", "result": "substantially do not act on normal cells"}, {"measurement": "concentration causing apoptosis", "setting": "[5]; [6]", "result": "one micromole or less"}, {"measurement": "concentration causing apoptosis compared with β-carotene or astaxanthin", "setting": "[5]; [6]", "result": "significantly lower than the corresponding concentration of β-carotene or astaxanthin"}, {"measurement": "apoptosis-inducing effect compared with fucoxanthin", "setting": "[5]; MT-2, 24 hours", "result": "stronger than that of fucoxanthin"}, {"measurement": "apoptosis of MT-2 (annexin V positive cells)", "setting": "[5]; MT-2, 10, 5, 2.5, 1.25, 0.625 μM, 24 hours, FIG. 8", "result": "induces apoptosis in MT-2"}]}, {"smiles": "CC1=C(/C=C/C(C)=C/C=C/C(C)=C/C=C/C=C(C)/C=C/C=C(C)/C=C/C2=C(C)CCCC2(C)C)C(C)(C)CCC1", "note": "[β-carotene, reference compound]", "values": [{"measurement": "effect on the growth of HTLV-I-infected T-lymph cell lines", "setting": "[1]; 24 hours", "result": "only a slight effect"}]}]}
